Data as given in patent US20230414794A1, “PSMA INHIBITOR, COMPOUND AND APPLICATION” (PEKING UNIVERSITY FIRST HOSPITAL, priority 2019, published 2023).

Legend:
PSMA = PSMA (Homo sapiens (Human), UniProt Q04609); assay: PSMA inhibitory activity (NAAG hydrolysis by LNCaP cell lysate, Amplex Red glutamate detection); assay type: biochemical; conditions: for Ki / inhibition at 6.667 µM: LNCaP cell lysate; for Ki: NAAG substrate, Ki by Cheng-Prusoff equation; for inhibition at 6.667 µM: inhibitor 6667 nM, read-out: % inhibited at 6667 nM
Sequence of PSMA (Q04609 whole entry): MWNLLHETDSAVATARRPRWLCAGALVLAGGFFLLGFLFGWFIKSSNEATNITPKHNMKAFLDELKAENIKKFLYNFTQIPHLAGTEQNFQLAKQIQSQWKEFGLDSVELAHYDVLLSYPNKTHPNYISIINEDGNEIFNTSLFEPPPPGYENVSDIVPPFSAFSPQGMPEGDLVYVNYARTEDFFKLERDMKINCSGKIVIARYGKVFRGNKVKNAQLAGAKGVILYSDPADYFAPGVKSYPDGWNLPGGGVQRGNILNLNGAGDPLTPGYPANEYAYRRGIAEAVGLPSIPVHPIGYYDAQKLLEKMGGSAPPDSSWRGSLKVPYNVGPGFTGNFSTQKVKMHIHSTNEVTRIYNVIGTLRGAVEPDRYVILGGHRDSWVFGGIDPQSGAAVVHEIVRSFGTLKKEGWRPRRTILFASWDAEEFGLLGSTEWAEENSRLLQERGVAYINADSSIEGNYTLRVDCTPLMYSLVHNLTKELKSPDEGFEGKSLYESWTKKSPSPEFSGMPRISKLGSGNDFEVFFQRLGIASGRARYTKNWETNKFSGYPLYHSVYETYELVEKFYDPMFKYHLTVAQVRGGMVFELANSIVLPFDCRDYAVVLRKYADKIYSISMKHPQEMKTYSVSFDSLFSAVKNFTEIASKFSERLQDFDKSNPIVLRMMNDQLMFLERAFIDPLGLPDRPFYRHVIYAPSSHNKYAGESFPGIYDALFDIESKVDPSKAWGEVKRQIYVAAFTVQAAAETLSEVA
Description: A LNCaP cell lysate (total protein concentration: 125 μg/mL) was prepared in advance. 25 μL of the cell lysate, 25 μL of the inhibitor and 25 μL of N-acetylaspartylglutamate (NAAG, 16 μM) were incubated together in a 96-well plate (Costar Assay Plate, Cat#. 3925) at 37° C. for 180 min. The amount of glutamate released by hydrolysis of NAAG was measured using an Amplex Red Glutamic Acid Kit (Molecular Probes Inc., Eugene, OR) working solution (50 μL) after incubation for 30 min Fluorescence were measured using Synergy H1 Hybrid Reader (BioTek Instruments, Inc., Winooski, Vermont) at excitation wavelength of 530 nm and emission wavelength of 590 nm. An inhibition curve was plotted by a semi-logarithmic method. […] The inhibition constant (Ki) of the enzyme was calculated by the Cheng-Prusof equation. Each experiment was performed in triplicates. Data analysis was performed by GraphPad Prism 7.0 (GraphPad Software, San Diego, California).

PSMA (LNCaP cells) = PSMA (LNCaP cells) (Homo sapiens (Human), UniProt Q04609); assay: Fluorescence microscopy imaging of LNCaP cells stained with Compound S1, with or without Compound S2; assay type: cell-based; conditions: room temperature
Sequence of PSMA (LNCaP cells) (Q04609 whole entry): as above
Description: LNCaP cells were diluted to 1×10^6/mL with RPMI-1640 (containing 10% FBS). For staining, the cells and 2 μM Compound S1 were incubated at room temperature for 1 h. For the inhibition group, the cells were incubated with 2 μM Compound S1 and 200 μM Compound S2 together for 1 h at room temperature. After the staining was completed, excess dye compound was removed by centrifugation, and the cells were resuspended in cold PBS and blown well, 100 μL of which was taken and added to a 96-well plate, left for several minutes and then observed under a fluorescence microscope.

[1] = molecular target: PSMA (LNCaP cells with high PSMA expression) (Homo sapiens (Human), UniProt Q04609); assay: Flow cytometric analysis: inhibition of YC-36 staining of LNCaP cells; assay type: cell-based; conditions: 2 μM YC-36 plus 200 μM Compound S2 (100×), 1 h, room temperature, flow cytometry
Sequence of PSMA (LNCaP cells with high PSMA expression) (Q04609 whole entry): as above
Description: LNCaP cells were diluted to 1×10^6/mL with RPMI-1640 (containing 10% FBS). For staining, the cells and 2 μM YC-36 were incubated at room temperature for 1 h, and then washed twice with the same medium. The cells were resuspended in cold PBS. For the inhibition group, the cells were incubated with 2 μM YC-36 and 200 μM Compound S2 for 1 hour at room temperature. The cells were analyzed by BD Influs Cell Sorter (BD Biosciences, San Jose, CA95131, USA) flow cytometry and the FlowJo software, and the results are shown in FIG. 6. The black area (left in Panel A) represents the LNCaP cells without dye, and the blue area (right in Panel A) represents the LNCaP cells after co-incubation with YC-36.
YC-36 is a fluorescent molecule having a high affinity for PSMA, and can selectively stain cells with high PSMA expression (Kiess, A.P., et al., Auger Radiopharmaceutical Therapy Targeting Prostate […]. J Nucl Med, 2015. 56(9): p. 1401-1407).

Row | SMILES | Ki (PSMA) [nM] | inhibition at 6.667 µM (PSMA) [%] | inhibition of staining of LNCaP cells by YC-36 [1] | affinity relative to ZJ-43 (PSMA; fold higher affinity than ZJ-43, from Ki in Table 1) [times] | inhibition of staining of LNCaP cells by the blue dye Compound S1 (PSMA (LNCaP cells); 2 μM Compound S1 plus 200 μM Compound S2 (100×), 1 h) | staining of LNCaP cells (PSMA (LNCaP cells); 2 μM Compound S1, 1 h)
1 | CC(C)C[C@H](NC(=O)N[C@@H](CNC(=O)c1ncc[nH]1)C(=O)O)C(=O)O [Comparative Compound DS1, (S)-2-(3-((S)-1-carboxy-2-(1H-imidazole-2-carboxamido)ethyl)ureido)-4-methylpentanoic acid] | > 1000 | 10.7 | – | – | – | –
2 | Nc1ccc2c(CC(=O)NCCCC[C@H](NC(=O)N[C@@H](CNC(=O)C(=O)O)C(=O)O)C(=O)O)cc(=O)oc2c1 [Compound S1, (45,85)-15-(7-amino-2-oxo-2H-chromen-4-yl)-1,6,14-trioxo-2,5,7,13-tetraazapentadecane-1,4,8-tricarboxylic acid] | 5.96 | – | – | – | – | stained the cells by specific binding to PSMA
3 | O=C(N[C@@H](CCCCNC(=O)c1ccc(I)cc1)C(=O)O)N[C@@H](CNC(=O)C(=O)O)C(=O)O [Compound S2, (45,85)-14-(4-iodophenyl)-1,6,14-trioxo-2,5,7,13-tetraazatetradecane-1,4,8-tric arboxylic acid] | 0.08 | – | significantly inhibited | 44 | significantly inhibit | –
4 | CC(C)C[C@H](NC(=O)N[C@@H](CNC(=O)C(=O)O)C(=O)O)C(=O)O [Compound S3, (S)-2-(3-((S)-1-carboxy-2-(carboxyformamido)ethyl)ureido)-4-methylpentanoic acid] | 5.69 | – | – | – | – | –

Continued, in another order:

Row | Ki (PSMA) [nM] | inhibition at 6.667 µM (PSMA) [%] | inhibition of staining of LNCaP cells by YC-36 [1] | affinity relative to ZJ-43 (PSMA; fold higher affinity than ZJ-43, from Ki in Table 1) [times] | inhibition of staining of LNCaP cells by the blue dye Compound S1 (PSMA (LNCaP cells); 2 μM Compound S1 plus 200 μM Compound S2 (100×), 1 h) | SMILES | staining of LNCaP cells (PSMA (LNCaP cells); 2 μM Compound S1, 1 h)
5 | > 1000 | 20.6 | – | – | – | CC(C)C[C@H](NC(=O)N[C@@H](CNC(=O)c1c[nH]cn1)C(=O)O)C(=O)O [Comparative Compound DS2, (S)-2-(3-((S)-1-carboxy-2-(1H-imidazole-4-carboxamido)ethyl)ureido)-4-methylpentanoic acid] | –
6 | > 1000 | 47.3 | – | – | – | CC(C)C[C@H](NC(=O)N[C@@H](CNC(=O)c1c[nH]nn1)C(=O)O)C(=O)O [Comparative Compound DS3, (S)-2-(3-((S)-1-carboxy-2-(1H-1,2,3-triazole-4-carboxamido)ethyl)ureido)-4-methylpentanoic acid] | –
